In US9994528B2, “Certain amino-pyridines and amino-triazines, compositions thereof, and methods for their use” (Cytokinetics, Inc., priority 2010, dated 2018):

test system: rabbit skeletal myofibrils (approximately 90% fast fibers); test: Activation of fast skeletal myofibrils (PUMA coupled-enzyme ATPase assay); format: biochemical; settings: AC1.4 = concentration at which the compound increased the enzymatic activity by 40%; myofibril suspension at calcium level pCa25; PM12 buffer pH 6.8
In short: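 Fast skeletal myofibrils from rabbit psoas muscle (roughly 90% fast fibers) were homogenized, washed with Triton X-100 to strip membranes, and frozen in 10% sucrose at −80° C. Their calcium-regulated ATPase activity was measured at pCa25 in PM12 buffer (12 mM Pipes, 2 mM MgCl2, 1 mM DTT, pH 6.8). A pyruvate kinase/lactate dehydrogenase system coupled ADP regeneration to NADH oxidation, read at 340 nm.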

Mean AC1.4	SMILES
B (B=1-10 uM)	CC(C)(Nc1ncc(-c2cc(NS(N)(=O)=O)ccc2F)nn1)c1ncccc1F [amino[4-fluoro-3-(3-{[1-(3-fluoro(2-pyridyl))-isopropyl]amino}(1,2,4-triazin-6-yl))phenyl]sulfonamide]
D (D=>20 uM)	COC(=O)c1ccc(F)c(-c2cnc(NCC(C)(C)c3ncccc3Cl)nn2)c1 [methyl 3-(3-{[2-(3-chloro(2-pyridyl))-2-methylpropyl]amino}(1,2,4-triazin-6-yl))-4-fluorobenzoate]
B (B=1-10 uM)	COC(=O)c1ccc(F)c(-c2cnc(NCC3(c4ncccc4Cl)CCC3)nn2)c1 [methyl 3-[3-({[(3-chloro(2-pyridyl))cyclobutyl]methyl}amino)(1,2,4-triazin-6-yl)]-4-fluorobenzoate]
D (D=>20 uM)	COC(=O)c1ccc(-c2cnc(NC(C)(C)c3ncccc3F)nn2)c(F)c1 [methyl 3-fluoro-4-(3-{[1-(3-fluoro(2-pyridyl))-isopropyl]amino}(1,2,4-triazin-6-yl))benzoate]
C (C=10-20 uM)	COC(=O)c1ccc(F)c(-c2cnc(NCC3(c4ccccn4)CCC3)nn2)c1 [methyl 4-fluoro-3-(3-{[(2-pyridylcyclobutyl)methyl]amino}(1,2,4-triazin-6-yl))benzoate]
D (D=>20 uM)	COC(=O)c1ccc(F)c(-c2cnc(NC(C)(C)c3cccc(S(C)(=O)=O)c3)nn2)c1 [methyl 4-fluoro-3-[3-({1-methyl-1-[3-(methylsulfonyl)phenyl]ethyl}amino)(1,2,4-triazin-6-yl)]benzoate]
B (B=1-10 uM)	OCc1cnc(-c2cnc(NC[C@]3(c4ncccc4F)C[C@H](F)C3)nn2)s1 [{2-[3-({[3-fluoro-1-(3-fluoro(2-pyridyl))cyclobutyl]methyl}amino)-1,2,4-triazin-6-yl]-1,3-thiazol-5-yl}methan-1-ol]
C (C=10-20 uM)	OCc1cnc(-c2cnc(NCC3(c4ncccc4F)CCC3)nn2)s1 [{2-[3-({[(3-fluoro-2-pyridyl)cyclobutyl]methyl}amino)-1,2,4-triazin-6-yl]-1,3-thiazol-5-yl}methan-1-ol]
B (B=1-10 uM)	CNC(=O)c1ccc(F)c(-c2cnc(NCC3(c4ncccc4Cl)CC(F)(F)C3)nn2)c1 [{3-[3-({[1-(3-chloro(2-pyridyl))-3,3-difluorocyclobulyl]methyl}amino)(1,2,4-triazin-6-yl)]-4-fluorophenyl}-N-methylcarboxamide]
A (A=<1 uM)	CNC(=O)c1ccc(F)c(-c2cnc(NC[C@]3(c4ncccc4Cl)C[C@H](F)C3)nn2)c1 [{3-[3-({[1-(3-chloro(2-pyridyl))-3-fluorocyclobutyl]methyl}amino)(1,2,4-triazin-6-yl)]-4-fluorophenyl}-N-methylcarboxamide]
B (B=1-10 uM)	CNC(=O)c1cccc(-c2cnc(NC[C@]3(c4ncccc4Cl)C[C@H](F)C3)nn2)c1 [{3-[3-({[1-(3-chloro(2-pyridyl))-3-fluorocyclobutyl]methyl}amino)(1,2,4-triazin-6-yl)]phenyl}-N-methylcarboxamide]
B (B=1-10 uM)	CNC(=O)c1cccc(-c2cnc(NC[C@]3(c4ncccc4F)C[C@H](F)C3)nn2)c1 [{3-[3-({[3-fluoro-1-(3-fluoro(2-pyridyl))cyclobulyl]methyl}amino)(1,2,4-triazin-6-yl)]phenyl}-N-methylcarboxamide]
A (A=<1 uM)	CNC(=O)c1ccc(O)c(-c2cnc(NC[C@]3(c4ncccc4F)C[C@H](F)C3)nn2)c1 [{3-[3-({[3-fluoro-1-(3-fluoro(2-pyridyl))cyclobutyl]methyl}amino)(1,2,4-triazin-6-yl)]-4-hydroxyphenyl}-N-methylcarboxamide]
B (B=1-10 uM)	CNC(=O)c1ccc(F)c(-c2cnc(NC[C@]3(c4ncccc4F)C[C@H](F)C3)nn2)c1 [{4-fluoro-3-[3-({[3-fluoro-1-(3-fluoro(2-pyridyl))cyclobutyl]methyl}amino)(1,2,4-triazin-6-yl)]phenyl}-N-methylcarboxamide]
